Columns and labels:
[1] = target: T1, hERG channel (Homo sapiens, UniProt Q12809); assay: Predictor hERG fluorescence polarization (FP) binding assay
T1 construct: purchased
Procedure: • a. Primary stock solutions of 3 mM CK and astemizole in 100% DMSO were diluted in 3-fold serial dilutions in the same solvent to obtain 16 different concentrations ranging from 3 mM to […]. These solutions were further diluted 25-fold with FP (fluorescence polarization) assay buffer and then transferred to the assay plate. • b. Each test solution in the assay plate was further diluted 4-fold with FP assay buffer. Predictor™ hERG membrane preparations were thawed at room temperature and sonicated. Predictor™ hERG Tracer Red (250 nM) was diluted to 4 nM with hERG FP assay buffer. All experiments were performed in FP assay buffer containing […].
• a. The FP assay was carried out using Predictor™ hERG Fluorescence Polarization Assay Kit. The binding assay was conducted following the manufacturer's recommended protocol with some modifications. Aliquots (5 μL) of each concentration of test article of reference were pipetted into the appropriate wells of a black 384-well micro-plate containing 10 μL of hERG membrane and 5 μL of 4 nM fluorescent tracer and covered with plate lid to protect the reagents exposed to from light. • b. The experiments were performed using triplicate wells for each concentration. Following a 3-hour incubation at room temperature, the microplates were read on a Tecan Infinite® F200 plate reader using polarized excitation filter setting at 535 nm and emission filter setting at 590 nm (25 and 20 nm bandwidths, respectively). Assay robustness was assessed by measuring 16 replicates positive control wells (containing 30 μM E-4031, known hERG channel blocker, in FP assay mixture) and negative control wells (no hERG channel blocker in FP assay mixture).
• a. To evaluate the robustness of the hERG assays, the signal-to-noise ratio was quantified by calculating Z′-factor for each assay. In statistics, the Z′-factor provides a way to evaluate the quality of the assay. […]. Z′-factor values were determined using the blank subtracted polarization values from 16 wells of • negative and positive controls using the formula of Zhang et al. […]

[2] = Releasing kinetics of ginsenoside CK from two-layer coated balloon (CK DEB), FIG. 4; type: physicochemical

T1 sequence (Q12809 whole entry): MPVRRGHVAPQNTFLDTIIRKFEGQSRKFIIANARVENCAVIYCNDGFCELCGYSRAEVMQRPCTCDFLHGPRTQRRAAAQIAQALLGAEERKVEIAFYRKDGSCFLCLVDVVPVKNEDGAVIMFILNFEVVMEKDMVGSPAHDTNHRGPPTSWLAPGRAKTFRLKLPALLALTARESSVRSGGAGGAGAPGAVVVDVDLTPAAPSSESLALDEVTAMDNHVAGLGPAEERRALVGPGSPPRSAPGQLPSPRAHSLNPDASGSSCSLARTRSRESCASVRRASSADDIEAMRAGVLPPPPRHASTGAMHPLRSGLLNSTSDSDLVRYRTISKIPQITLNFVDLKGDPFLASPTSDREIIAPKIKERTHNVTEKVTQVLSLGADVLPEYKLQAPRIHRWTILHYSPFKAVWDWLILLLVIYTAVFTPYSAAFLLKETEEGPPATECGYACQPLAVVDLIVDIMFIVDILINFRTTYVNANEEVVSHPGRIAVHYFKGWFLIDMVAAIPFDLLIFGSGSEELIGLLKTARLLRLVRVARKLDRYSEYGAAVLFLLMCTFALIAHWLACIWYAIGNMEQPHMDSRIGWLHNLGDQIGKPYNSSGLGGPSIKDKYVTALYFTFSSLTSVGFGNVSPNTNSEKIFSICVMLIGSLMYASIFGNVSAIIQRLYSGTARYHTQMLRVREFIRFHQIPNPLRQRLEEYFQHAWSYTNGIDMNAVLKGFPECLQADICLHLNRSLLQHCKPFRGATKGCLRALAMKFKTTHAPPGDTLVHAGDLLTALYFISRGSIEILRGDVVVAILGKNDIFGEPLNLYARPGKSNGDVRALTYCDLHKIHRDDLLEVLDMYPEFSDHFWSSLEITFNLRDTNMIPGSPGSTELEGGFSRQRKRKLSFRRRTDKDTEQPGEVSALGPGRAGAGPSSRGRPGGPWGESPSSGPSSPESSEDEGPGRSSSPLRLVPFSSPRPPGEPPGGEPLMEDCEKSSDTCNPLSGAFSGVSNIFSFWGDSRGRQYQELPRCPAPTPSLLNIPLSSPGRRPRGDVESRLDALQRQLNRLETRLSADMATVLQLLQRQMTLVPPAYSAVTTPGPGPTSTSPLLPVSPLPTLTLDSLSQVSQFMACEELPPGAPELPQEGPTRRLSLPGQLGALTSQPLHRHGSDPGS

Compound: CC(C)=CCC[C@](C)(O[C@@H]1O[C@H](CO)[C@@H](O)[C@H](O)[C@H]1O)[C@H]1CC[C@]2(C)[C@@H]1[C@H](O)C[C@@H]1[C@@]3(C)CC[C@H](O)C(C)(C)[C@@H]3CC[C@]12C [CK, Ginsenoside compound K]
- blocking effect for binding of tracer to the hERG membrane protein ([1]; at 30 μM, triplicate measurements): minor blocking effect
- risk classification of potency for hERG blocker ([1]; classified from IC50): weak ligand
- IC50 ([1]; hERG FP assay, triplicate measurements): > 30 µM
- amount of residual drug ([2]; after 90 days of drug release): beyond the detection/quantitation limit
- drug released (initial burst) ([2]; within one month): ~80%
